Assays:
[1] = tested on: barnyardgrass (ECHCG); assay: Test 32 greenhouse, simulated flooded rice culture; assay type: in vivo, Echinochloa crus-galli; set-up: scale not given here; details: postemergence to flood, 21 DAA
Protocol: A greenhouse trial was conducted to evaluate the effects of Compound 1 and isoxadifen-ethyl at different ratios in simulated flooded rice culture. Plastic pots (11-cm diameter) were partially filled with non-sterilized Tama silt loam soil containing a 15:57:28 ratio of sand, silt and clay and 2.9% organic matter. Seeds of Heteranthera limosa (ducksalad; HETLI), Cyperus difformis (smallflower umbrella sedge; CYPDI), one stand of Echinochloa crus-galli (barnyardgrass; ECHCG), and one stand of four rice seedlings (Oryza sativa cv. ‘M202’; ORYSA) were planted into a single 11-cm diameter pot for each rate and mixture of rates. To obtain this planting, C. difformis and H. limosa seeds were planted separately on the surface soil layer at particular locations within each pot. Water levels were brought to a puddled condition above the soil surface directly after planting. E. crus-galli and rice seeds were planted in cavity trays in the silt loam soil and transplanted at the 1.5 and 2.0 leaf stage, respectively. E. crus-galli and rice plants were transplanted to about 2-cm depth by transferring plugs from the cavity trays. Plantings were sequential so that these plant species all reached the 2.0- to 2.5-leaf stage in the 11-cm diameter pot at time of treatment. Plantings were established and maintained in a greenhouse with day and night temperatures of about 29.5 and 26.7° C. respectively; supplemental balanced lighting was provided to maintain a 16-hour photoperiod. Pots were fertilized periodically with a 200 ppm solution of commercial Scotts Peters® Professional® General Purpose 20-20-20 Water Soluble Fertilizer, amended to 10 ppm with a commercial iron-chelate micronutrient fertilizer. The solution was supplied at time of watering via a liquid fertilizer injector.
At treatment time, test pots were flooded to 3 cm above the soil surface and maintained at that water depth for the duration of the test. Chemical treatments were formulated in acetone and applied directly to the paddy water (i.e., postemergence to flood). Make-up volumes of acetone were added to ensure that all pots were treated with a consistent volume. Test pots were maintained in the greenhouse. A randomized complete block design was employed. Five replicates of each treatment, alone and in mixture, were used. Each species was visually evaluated for treatment effects by comparing those treated to untreated controls and rated for plant response after 21 days.

[2] = tested on: wild mustard (SINAR); assay: Test 24 growth chamber, postemergence; assay type: in vivo, Sinapis arvensis; details: 17 DAA
Protocol: (§1) Plants were treated postemergence at the 2-4 leaf growth stage, and each treatment was replicated three times. […] Plants were watered as needed. […] Results for barley and wheat are the means across varieties of the three replicates, and results for the weeds are the means of the three replicates.

[3] = tested on: wild buckwheat (POLCO); assay: Test 24 growth chamber, postemergence; assay type: in vivo, Polygonum convolvulus; details: 17 DAA
Protocol: as §1

[4] = tested on: winter wheat (TRZAW); assay: Test 24 growth chamber, postemergence; assay type: in vivo, Triticum aestivum; details: 17 DAA
Protocol: as §1

[5] = tested on: velvetleaf (ABUTH); assay: Test 17 greenhouse, post- and preemergence; assay type: in vivo, Abutilon theophrasti; details: 12 DAA
Source text: Plants were watered as needed.

[6] = tested on: redroot pigweed (AMARE); assay: Test 25 field trial, postemergence, growth as percent of control; assay type: in vivo, Amaranthus retroflexus
Source text: Corn seeds (hybrid ‘Pioneer 31G96 RR’) were planted in mid spring season, 3.8 cm deep in a clay loam soil having 2% organic matter and a pH of 6.6. Plots were 6.1 m long by 3.0 m wide with rows spaced 76 cm apart. Seeds were spaced 15 cm apart within the rows. The field was managed using conventional tillage practices. […] Giant ragweed and Pennsylvania smartweed could only be evaluated 14 days after application. […] Results are the means of the three replicates. This growth inhibition data was converted to results in the form of “plant growth as a percent of control plant growth” using the calculation “100 minus growth inhibition”.
When this form of Colby's Equation is used, if the observed effects on weeds are less than the expected values, the mixture is synergistic.

[7] = tested on: spring wheat (TRZAS); assay: Test 4 field trial, postemergence
Protocol: A field trial was conducted to evaluate the effects of mixtures of Compound 2 with commercial herbicides on spring wheat (TRZAS, Triticum aestivum L.) and several weed species. Wheat seeds (cv. ‘AC Intrepid’) were planted in late spring season, 3.8 cm deep in a loam soil having 2.7% organic matter and a pH of 7. Plots were 6 m long by 2.5 m wide. The field was managed using no-till practices. The plots were arranged in a randomized complete block design with each treatment being replicated four times. Treatments were applied postemergence 25 days after planting using a backpack sprayer delivering a spray volume of 55 L/ha using a pressure of 276 kPa. […] Compound 2 and clodinafop treatments, alone and in combination, also included a surfactant. Weed species present in the experimental plots in sufficient quantity to be evaluated included wild oat (AVEFA, Avena fatua L.), common lambsquarters (CHEAL, Chenopodium album L.), kochia (KCHSC, Kochia scoparia (L.) Schrad.), wild buckwheat (POLCO, Polygonum convolvulus L.), Russian thistle (SASKR, Salsola kali L. ssp. ruthenica (Iljin) Soo), and field pennycress (THLAR, Thlaspi arvense L.). […] Common lambsquarters was evaluated only at 14 days after application. […] Results are the means of the four replicates.

[8] = tested on: common lambsquarters (CHEAL); assay: Test 24 growth chamber, postemergence; assay type: in vivo, Chenopodium album; details: 17 DAA
Protocol: as §1

SMILES: Nc1nc(C2CC2)nc(C(=O)O)c1Cl [Compound 1, 6-amino-5-chloro-2-cyclopropyl-4-pyrimidinecarboxylic acid]
- ECHCG Obs ([1]; Cpd 1 31.25 g a.i./ha): 10
- ECHCG Obs ([1]; Cpd 1 62.5 g a.i./ha): 19
- ECHCG Obs ([1]; Cpd 1 125 g a.i./ha): 37

SMILES: COC(=O)c1nc(C2CC2)nc(N)c1Cl [Compound 2, methyl 6-amino-5-chloro-2-cyclopropyl-4-pyrimidinecarboxylate]
- SINAR Obs (scale 0 to 100) ([2]; Cpd 2 4 g a.i./ha): 62
- SINAR Obs (scale 0 to 100) ([2]; Cpd 2 8 g a.i./ha): 65
- SINAR Obs (scale 0 to 100) ([2]; Cpd 2 16 g a.i./ha): 72
- POLCO Obs (scale 0 to 100) ([3]; Cpd 2 4 g a.i./ha): 55
- POLCO Obs (scale 0 to 100) ([3]; Cpd 2 8 g a.i./ha): 60
- POLCO Obs (scale 0 to 100) ([3]; Cpd 2 16 g a.i./ha): 70
- TRZAW Obs (scale 0 to 100) ([4]; Cpd 2 4 g a.i./ha): 21
- TRZAW Obs (scale 0 to 100) ([4]; Cpd 2 8 g a.i./ha): 33
- TRZAW Obs (scale 0 to 100) ([4]; Cpd 2 16 g a.i./ha): 39
- Obs response, scale 0 to 100 ([5]; Postemergence, 15 g a.i./ha): 29
- Obs response, scale 0 to 100 ([5]; Postemergence, 30 g a.i./ha): 30
- Obs response, scale 0 to 100 ([5]; Postemergence, 45 g a.i./ha): 45
- Obs response, scale 0 to 100 ([5]; Preemergence, 15 g a.i./ha): 10
- Obs response, scale 0 to 100 ([5]; Preemergence, 30 g a.i./ha): 24
- Obs response, scale 0 to 100 ([5]; Preemergence, 45 g a.i./ha): 45
- AMARE Obs (percent of control) ([6]; Cpd 2 15 g a.i./ha, 14 DAA): 47%
- AMARE Obs (percent of control) ([6]; Cpd 2 15 g a.i./ha, 28 DAA): 38%
- AMARE Obs (percent of control) ([6]; Cpd 2 15 g a.i./ha, 56 DAA): 0%
- AMARE Obs (percent of control) ([6]; Cpd 2 30 g a.i./ha, 14 DAA): 35%
- AMARE Obs (percent of control) ([6]; Cpd 2 30 g a.i./ha, 28 DAA): 22%
- AMARE Obs (percent of control) ([6]; Cpd 2 30 g a.i./ha, 56 DAA): 0%
- AMARE Obs (percent of control) ([6]; Cpd 2 45 g a.i./ha, 14 DAA): 28%
- AMARE Obs (percent of control) ([6]; Cpd 2 45 g a.i./ha, 28 DAA): 20%
- AMARE Obs (percent of control) ([6]; Cpd 2 45 g a.i./ha, 56 DAA): 28%
- TRZAS Obs ([7]; 14 DAA, Cpd 2 30 g a.i./ha alone or with clodinafop 56 or fenoxaprop 90): 0
- TRZAS Obs ([7]; 14 DAA, Cpd 2 60 g a.i./ha alone or with clodinafop 56 or fenoxaprop 90): 0
- TRZAS Obs ([7]; 35 DAA, Cpd 2 30 g a.i./ha alone or with clodinafop 56 or fenoxaprop 90): 2
- TRZAS Obs ([7]; 35 DAA, Cpd 2 60 g a.i./ha alone or with clodinafop 56 or fenoxaprop 90): 6
- TRZAS Obs ([7]; 55 DAA, Cpd 2 30 g a.i./ha alone or with clodinafop 56 or fenoxaprop 90): 3
- TRZAS Obs ([7]; 55 DAA, Cpd 2 60 g a.i./ha alone or with clodinafop 56 or fenoxaprop 90): 11
- CHEAL Obs (scale 0 to 100) ([8]; Cpd 2 4 g a.i./ha): 45
- CHEAL Obs (scale 0 to 100) ([8]; Cpd 2 8 g a.i./ha): 60
- CHEAL Obs (scale 0 to 100) ([8]; Cpd 2 16 g a.i./ha): 73
